According to US20180042231A1, “Systems and Methods for the Continuous On-Site Production of Peroxycarboxcylic Acid Solutions” (Eltron Water Systems, LLC, priority 2016, published 2018):

How the values were obtained:
[1] = Dissolution of triacetin in water; format: physicochemical; settings: room temperature
From the text: A second method involves pre-dissolving traicetin in water outside the generator using time and mixing to eliminate the strands and globules. This approach requires a significant amount of extra water to be supplied to the generator, since at room temperature, the maximum amount of triacetin that can be dissolved is only approximately 4%.

[2] = Degradation (self-decay) of PAA solution over time; format: physicochemical; settings: for degradation rate of non-equilibrium PAA: 2% concentration
From the text: Sometimes it is desirable to remove the very strong odor of the final equilibrium PAA product, such as when it is used indoors. Anti-microbial efficacy is roughly the same whether the PAA is in an acidic or alkaline state. The two most significant differences are: 1) alkaline PAA has no odor and 2) alkaline PAA self-degrades very rapidly when the pH is above 8, usually at 5-10% per hour. In situations where the PAA is to be used within minutes or hours of when it is made alkaline, the addition of an alkali earth metal in solution with water can be used alone or with more water to both dilute the PAA and raise its pH to any desired level, eliminating its odor. At this point other materials may be added to the alkaline PAA such as detergents, fragrance additives and even foaming agents.
The system of the present invention is designed such that the PAA is produced in a unique manner which differs substantially from prior art processes, the end product being inherently not at equilibrium. At 2% concentration, it degrades at about 6% per day if the pH is below 7 (acidic) and at 5-10% per hour when the pH is above 7. Use of a stabilizer will not halt that decay. Accordingly, the system herein disclosed is designed to generate PAA to be used within minutes or hours of when it is made, thereby eliminating the need for a stabilizer used by every other PAA manufacturer in the world.

SMILES	maximum amount of triacetin that can be dissolved in water [1]	degradation rate of non-equilibrium PAA ([2]; pH above 7)	degradation rate of non-equilibrium PAA ([2]; pH below 7 (acidic))	self-degradation rate of alkaline PAA ([2]; equilibrium PAA made alkaline, pH above 8)
CC(=O)OCC(COC(C)=O)OC(C)=O [triacetin, 1,2,3-triacetoxypropane]	approximately 4%			
CC(=O)OO [PAA, peracetic acid]		5-10 % per hour	about 6 % per day	5-10 % per hour
